These results are taken from ChEMBL document CHEMBL1201862, “PubChem BioAssay data set” (2004).

Assay [1] deals with T1, Mannose-6-phosphate isomerase (Homo sapiens, UniProt P34949).
T1 sequence (P34949 whole entry): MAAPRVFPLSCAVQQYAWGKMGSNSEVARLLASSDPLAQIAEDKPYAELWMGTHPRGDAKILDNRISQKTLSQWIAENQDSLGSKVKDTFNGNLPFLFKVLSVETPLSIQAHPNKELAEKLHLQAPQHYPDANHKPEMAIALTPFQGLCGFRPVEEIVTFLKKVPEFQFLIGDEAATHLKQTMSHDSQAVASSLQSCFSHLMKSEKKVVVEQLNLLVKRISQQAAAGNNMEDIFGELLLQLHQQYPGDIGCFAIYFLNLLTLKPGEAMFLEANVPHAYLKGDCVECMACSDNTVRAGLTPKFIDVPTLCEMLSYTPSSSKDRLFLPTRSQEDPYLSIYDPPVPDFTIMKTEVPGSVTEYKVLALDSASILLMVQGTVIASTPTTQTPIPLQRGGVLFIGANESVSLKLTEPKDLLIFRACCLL
Put plainly: PMI enzyme inhibitors, confirmation, biochemical, fluorescence intensity (AID 1535).

Assay [2] concerns the target T2, Phosphomannomutase 2 (Homo sapiens, UniProt O15305).
T2 sequence (O15305 whole entry): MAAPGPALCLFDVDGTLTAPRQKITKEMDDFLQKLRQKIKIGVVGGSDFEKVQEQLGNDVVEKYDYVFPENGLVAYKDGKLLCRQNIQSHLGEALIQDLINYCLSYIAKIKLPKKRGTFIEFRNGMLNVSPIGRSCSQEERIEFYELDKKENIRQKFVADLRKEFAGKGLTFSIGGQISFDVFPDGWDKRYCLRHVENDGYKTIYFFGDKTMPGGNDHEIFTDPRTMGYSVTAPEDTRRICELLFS
Put plainly: Counter screen SAR assay for PMM2 inhibitors via a fluorescence intensity assay. [Related pubchem assays (depositor defined):AID1545, AID1574].

The target in assay [3] is Hexokinase (Trypanosoma brucei, UniProt Q38C41). Put plainly: Confirmation assay for inhibitors of Trypanosoma brucei hexokinase 1-Analogue-first series. [Related pubchem assays (depositor defined):AID1430, AID1632, AID2516, AID2560, AID2579, AID2600, AID449725, AID492951]. The format is functional.
Assay [4] addresses G-protein coupled receptor 55 (Homo sapiens, UniProt Q9Y2T6). Kind of assay: GPR55 antagonists blocking LPI-driven arrestin recruitment, primary screen, imaging, U2OS, beta-arrestin-GFP, LPI agonist (AID 2013).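 Note: antagonist potency measured as reduced agonist-driven arrestin aggregation.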 The format is functional. (In general: Arrestin recruitment assays detect the binding of arrestin to an activated receptor.)
In assay [5] the target is T3, Kappa-type opioid receptor (Homo sapiens, UniProt P41145). Kind of assay: SAR analysis of Antagonists of the Kappa Opioid Receptor (KOR) using an Image-Based Assay - Set 3. [Related pubchem assays (depositor defined):AID1777, AID1785]. The format is functional.
T3 sequence (P41145 whole entry): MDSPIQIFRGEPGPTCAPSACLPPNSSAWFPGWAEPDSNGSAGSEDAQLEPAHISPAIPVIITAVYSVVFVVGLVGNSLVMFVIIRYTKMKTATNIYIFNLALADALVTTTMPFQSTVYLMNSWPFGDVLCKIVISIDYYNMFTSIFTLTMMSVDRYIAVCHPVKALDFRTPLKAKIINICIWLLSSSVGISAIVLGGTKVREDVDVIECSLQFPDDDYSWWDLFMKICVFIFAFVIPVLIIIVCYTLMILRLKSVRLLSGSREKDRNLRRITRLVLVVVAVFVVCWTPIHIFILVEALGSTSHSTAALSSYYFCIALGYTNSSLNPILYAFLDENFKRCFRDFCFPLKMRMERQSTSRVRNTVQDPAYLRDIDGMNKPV
Assay [6] deals with Mu-type opioid receptor (Homo sapiens, UniProt P35372). Put plainly: SAR Analysis of Antagonists of the MOR Receptor using an Image-Based Assay - Set 3. [Related pubchem assays (depositor defined):AID1777, AID1785, AID1786, AID1966, AID2133, AID2136, AID2284, AID2285, AID2420]. The format is functional.
Assay [7] deals with Delta-type opioid receptor (Homo sapiens, UniProt P41143). Kind of assay: SAR Analysis of Antagonists of the DOR Receptor using an Image-Based Assay - Set 3. [Related pubchem assays (depositor defined):AID1777, AID1785]. The format is functional.
Assay [8] deals with T3, Kappa-type opioid receptor. Put plainly: SAR analysis of small molecule antagonists of the kappa opioid receptor via a luminescent beta-arrestin assay - Set 3. [Related pubchem assays (depositor defined):AID1777, AID1778, AID1785, AID1786, AID1966, AID2133, AID2136, AID2285, AID2495]. The format is functional.
Assay [9] has as its target Beta-galactosidase (Escherichia coli, UniProt Q8VNN2). Kind of assay: beta-galactosidase enzyme inhibitors and activators, dose response, artefact control for CCR6 antagonist project, biochemical, E. coli enzyme, set 3 (AID 504712). The format is functional.
For assay [10], the target named is C-C chemokine receptor type 6 (Homo sapiens, UniProt P51684). Put plainly: CCR6 receptor antagonists, dose response, cell-based, luminescent beta-arrestin readout (AID 504728). The format is functional.
Assay [11] can be described thus: NIH-3T3 fibroblast cytotoxicity, dose response, cytotoxicity control, cell-based, fluorescence, Alamar Blue, secondary assay (AID 2327).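 Note: NIH-3T3 mouse fibroblasts cultured with fluconazole at 8 µg/mL.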 The format is functional.
The target in assay [12] is Intestinal-type alkaline phosphatase (Mus musculus, UniProt P24822). Put plainly: PubChem AID 488875. The format is functional.
Assay [13] addresses T4, SUMO-activating enzyme (Homo sapiens, UniProt Q9UBT2). Kind of assay: inhibitors of in vitro SUMOylation cascade, primary screen, biochemical, HTRF, uHTS (AID 2006). The format is protein-complex assay.
The target in assay [14] is T5, Intestinal-type alkaline phosphatase (Homo sapiens, UniProt P09923). Kind of assay: human intestinal alkaline phosphatase activators, dose response, biochemical, luminescence, uHTS hits (AID 463120). The format is functional.
T5 sequence (P09923 whole entry): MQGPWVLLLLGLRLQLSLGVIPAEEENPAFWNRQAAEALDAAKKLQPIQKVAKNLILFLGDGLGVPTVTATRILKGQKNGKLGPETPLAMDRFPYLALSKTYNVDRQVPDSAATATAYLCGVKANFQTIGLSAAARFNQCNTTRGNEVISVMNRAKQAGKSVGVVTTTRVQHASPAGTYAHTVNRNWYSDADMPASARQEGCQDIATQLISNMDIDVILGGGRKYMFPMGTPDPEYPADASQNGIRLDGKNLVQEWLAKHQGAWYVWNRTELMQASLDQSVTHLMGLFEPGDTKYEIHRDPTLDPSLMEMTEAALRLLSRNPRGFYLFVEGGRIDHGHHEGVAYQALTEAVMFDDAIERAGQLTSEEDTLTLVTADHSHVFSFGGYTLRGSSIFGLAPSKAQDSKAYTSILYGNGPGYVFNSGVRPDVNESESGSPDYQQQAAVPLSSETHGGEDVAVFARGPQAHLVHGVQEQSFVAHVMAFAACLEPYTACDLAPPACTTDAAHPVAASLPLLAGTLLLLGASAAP
In assay [15] the target is T5, Intestinal-type alkaline phosphatase. Kind of assay: human IAP activators, dose response, biochemical, luminescent, uHTS hits, set 2 (AID 488817).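 Note: potency of activators that raise enzyme activity.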 The format is functional.
The target of assay [16] is T4, SUMO-activating enzyme. Kind of assay: SUMOylation inhibitor hit validation, confirmation, SUMOylation inhibitor project, biochemical, AlphaScreen (AID 2018). The format is functional.
Assay [17] is described as follows: C. albicans growth with fluconazole, confirmation, fluorescence, retest (AID 2467). The format is functional, cell-based.
For assay [18], the target named is T6, Alkaline phosphatase, tissue-nonspecific isozyme (Homo sapiens, UniProt P05186).
T6 sequence (P05186 whole entry): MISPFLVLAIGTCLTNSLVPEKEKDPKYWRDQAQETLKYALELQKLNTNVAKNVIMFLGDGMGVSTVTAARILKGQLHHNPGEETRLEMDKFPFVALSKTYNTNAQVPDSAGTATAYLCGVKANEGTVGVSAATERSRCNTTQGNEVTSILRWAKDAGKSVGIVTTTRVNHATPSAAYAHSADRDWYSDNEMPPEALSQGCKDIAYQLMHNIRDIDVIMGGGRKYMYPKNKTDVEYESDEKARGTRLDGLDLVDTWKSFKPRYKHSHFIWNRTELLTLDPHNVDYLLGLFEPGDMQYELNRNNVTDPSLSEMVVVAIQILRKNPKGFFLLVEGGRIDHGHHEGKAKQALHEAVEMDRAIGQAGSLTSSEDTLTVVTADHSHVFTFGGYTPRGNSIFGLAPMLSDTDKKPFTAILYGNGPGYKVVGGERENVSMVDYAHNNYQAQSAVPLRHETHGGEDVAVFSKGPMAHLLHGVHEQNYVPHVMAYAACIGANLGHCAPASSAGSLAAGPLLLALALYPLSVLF
Kind of assay: TNAP enzyme activators, dose response, selectivity assay for human IAP activator project, biochemical, TNAP isozyme, human IAP uHTS hits (AID 488886).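 Note: potency of compounds raising TNAP activity as a selectivity check on IAP activators.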 The format is functional.

Assay [19] is described as follows: Luminescence Cell-Based/Microorganism Confirmation at Dose of Inhibitors of Trypanosoma cruzi Infection. [Related pubchem assays: 1885, 1968 ]. The format is functional.
Assay [20] can be described thus: Luminescence Cell-Based Secondary HTS screen to identify cytotoxic compounds of NIH3T3 cells. [Related pubchem assays: 1885, 1968 ]. The format is functional.
Assay [21] has as its system Trypanosoma cruzi. Put plainly: growth inhibition of intracellular Trypanosoma cruzi, dose response, cell-based, plate reader, dry powder, set 3 (AID 493197). The format is functional.
Assay [22] is described as follows: cytotoxicity in NIH/3T3 mouse fibroblasts, dose response, cytotoxicity control, cell-based, mouse embryonic fibroblasts, dry powder, set 2 (AID 493247). The format is functional. To be noted: Fibroblast.
Assay [23] has as its target T7, Voltage-gated N-type calcium channel alpha-1B subunit/Amyloid beta A4 precursor protein-binding family A member 1 (Homo sapiens, UniProt Q00975+Q02410). The format is protein assay.
Assay [24] concerns the target T7, Voltage-gated N-type calcium channel alpha-1B subunit/Amyloid beta A4 precursor protein-binding family A member 1. The format is protein assay. The source holds these as a separate data set.
The target in assay [25] is Eukaryotic translation initiation factor 4E (Mus musculus, UniProt P63073). Kind of assay: eIF4E–eIF4G protein interaction inhibitors, dose response, biochemical, TR-FRET (AID 855).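 Note: potency for disrupting eIF4E binding to eIF4GI seen as loss of FRET.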 The format is functional. Background: In TR-FRET formats the signal depends on donor and acceptor labels being close together.
Assay [26] deals with T8, Tyrosine-protein phosphatase non-receptor type 7 (Homo sapiens, UniProt P35236).
T8 sequence (P35236 whole entry): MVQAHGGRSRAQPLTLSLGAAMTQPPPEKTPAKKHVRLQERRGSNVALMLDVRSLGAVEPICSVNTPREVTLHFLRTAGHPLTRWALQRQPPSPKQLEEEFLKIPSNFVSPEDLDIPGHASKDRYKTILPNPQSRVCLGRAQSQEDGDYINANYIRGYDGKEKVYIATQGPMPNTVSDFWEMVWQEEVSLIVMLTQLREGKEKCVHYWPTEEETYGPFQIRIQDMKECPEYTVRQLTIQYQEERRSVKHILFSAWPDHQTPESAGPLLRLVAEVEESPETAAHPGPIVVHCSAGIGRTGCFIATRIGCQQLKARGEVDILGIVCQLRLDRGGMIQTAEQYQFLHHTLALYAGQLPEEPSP
Kind of assay: redox-dependent HePTP inhibition, mechanism study, biochemical, fluorescence (AID 2068). The format is functional.

Assay [27] addresses Glutathione-S-transferase (Schistosoma japonicum, UniProt Q26513). Put plainly: biotin-GST/anti-GST TR-FRET signal inhibitors, dose response, artefact control for Vif-APOBEC3G degradation inhibitor project, biochemical (AID 1117362). The format is functional.
Assay [28] concerns the target T9, Short transient receptor potential channel 4 (Mus musculus, UniProt Q9QUQ5).
T9 sequence (Q9QUQ5 whole entry): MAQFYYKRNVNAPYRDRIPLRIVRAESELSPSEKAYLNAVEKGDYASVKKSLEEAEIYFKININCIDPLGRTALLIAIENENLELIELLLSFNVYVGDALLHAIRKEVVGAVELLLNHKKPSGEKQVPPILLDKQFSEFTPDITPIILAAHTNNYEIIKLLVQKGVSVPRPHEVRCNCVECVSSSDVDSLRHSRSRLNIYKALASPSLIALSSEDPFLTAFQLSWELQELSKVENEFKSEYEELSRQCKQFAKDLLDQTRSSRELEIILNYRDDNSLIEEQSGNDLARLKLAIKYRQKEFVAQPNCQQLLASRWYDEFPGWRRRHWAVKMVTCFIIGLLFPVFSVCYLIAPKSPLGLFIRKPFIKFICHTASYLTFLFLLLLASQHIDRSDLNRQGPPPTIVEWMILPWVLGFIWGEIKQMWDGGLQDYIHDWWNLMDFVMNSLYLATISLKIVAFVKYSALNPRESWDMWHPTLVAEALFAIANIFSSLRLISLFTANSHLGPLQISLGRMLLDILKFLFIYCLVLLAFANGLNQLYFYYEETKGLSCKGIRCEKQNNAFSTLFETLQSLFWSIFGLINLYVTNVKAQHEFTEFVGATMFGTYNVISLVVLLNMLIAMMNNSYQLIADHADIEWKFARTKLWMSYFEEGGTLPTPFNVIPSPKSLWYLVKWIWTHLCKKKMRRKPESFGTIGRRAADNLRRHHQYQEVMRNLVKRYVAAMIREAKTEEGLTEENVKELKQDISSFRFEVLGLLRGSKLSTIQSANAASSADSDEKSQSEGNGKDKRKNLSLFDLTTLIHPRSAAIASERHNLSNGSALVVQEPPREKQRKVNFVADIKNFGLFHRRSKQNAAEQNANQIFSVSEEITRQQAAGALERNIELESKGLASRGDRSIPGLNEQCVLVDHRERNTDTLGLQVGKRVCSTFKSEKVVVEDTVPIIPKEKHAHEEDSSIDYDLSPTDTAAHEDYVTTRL
Put plainly: TRPC4 positive allosteric modulators, dose response, cell-based, HEK293 TRPC4/mu-opioid, Fluo-4 calcium, EC20 DAMGO (AID 434941).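 Note: HEK293 cells coexpressing TRPC4 and mu opioid receptor stimulated by EC20 DAMGO.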 The format is functional.

The structures appear in SMILES notation. Several values for one entry are separate records, joined by “and”; a condition that tells them apart may be missing. Equal values may be shown once. Where a name gives a salt, the structure may show the parent alone. Activity calls are given as the source filed them.

T7 sequence (Q00975 whole entry): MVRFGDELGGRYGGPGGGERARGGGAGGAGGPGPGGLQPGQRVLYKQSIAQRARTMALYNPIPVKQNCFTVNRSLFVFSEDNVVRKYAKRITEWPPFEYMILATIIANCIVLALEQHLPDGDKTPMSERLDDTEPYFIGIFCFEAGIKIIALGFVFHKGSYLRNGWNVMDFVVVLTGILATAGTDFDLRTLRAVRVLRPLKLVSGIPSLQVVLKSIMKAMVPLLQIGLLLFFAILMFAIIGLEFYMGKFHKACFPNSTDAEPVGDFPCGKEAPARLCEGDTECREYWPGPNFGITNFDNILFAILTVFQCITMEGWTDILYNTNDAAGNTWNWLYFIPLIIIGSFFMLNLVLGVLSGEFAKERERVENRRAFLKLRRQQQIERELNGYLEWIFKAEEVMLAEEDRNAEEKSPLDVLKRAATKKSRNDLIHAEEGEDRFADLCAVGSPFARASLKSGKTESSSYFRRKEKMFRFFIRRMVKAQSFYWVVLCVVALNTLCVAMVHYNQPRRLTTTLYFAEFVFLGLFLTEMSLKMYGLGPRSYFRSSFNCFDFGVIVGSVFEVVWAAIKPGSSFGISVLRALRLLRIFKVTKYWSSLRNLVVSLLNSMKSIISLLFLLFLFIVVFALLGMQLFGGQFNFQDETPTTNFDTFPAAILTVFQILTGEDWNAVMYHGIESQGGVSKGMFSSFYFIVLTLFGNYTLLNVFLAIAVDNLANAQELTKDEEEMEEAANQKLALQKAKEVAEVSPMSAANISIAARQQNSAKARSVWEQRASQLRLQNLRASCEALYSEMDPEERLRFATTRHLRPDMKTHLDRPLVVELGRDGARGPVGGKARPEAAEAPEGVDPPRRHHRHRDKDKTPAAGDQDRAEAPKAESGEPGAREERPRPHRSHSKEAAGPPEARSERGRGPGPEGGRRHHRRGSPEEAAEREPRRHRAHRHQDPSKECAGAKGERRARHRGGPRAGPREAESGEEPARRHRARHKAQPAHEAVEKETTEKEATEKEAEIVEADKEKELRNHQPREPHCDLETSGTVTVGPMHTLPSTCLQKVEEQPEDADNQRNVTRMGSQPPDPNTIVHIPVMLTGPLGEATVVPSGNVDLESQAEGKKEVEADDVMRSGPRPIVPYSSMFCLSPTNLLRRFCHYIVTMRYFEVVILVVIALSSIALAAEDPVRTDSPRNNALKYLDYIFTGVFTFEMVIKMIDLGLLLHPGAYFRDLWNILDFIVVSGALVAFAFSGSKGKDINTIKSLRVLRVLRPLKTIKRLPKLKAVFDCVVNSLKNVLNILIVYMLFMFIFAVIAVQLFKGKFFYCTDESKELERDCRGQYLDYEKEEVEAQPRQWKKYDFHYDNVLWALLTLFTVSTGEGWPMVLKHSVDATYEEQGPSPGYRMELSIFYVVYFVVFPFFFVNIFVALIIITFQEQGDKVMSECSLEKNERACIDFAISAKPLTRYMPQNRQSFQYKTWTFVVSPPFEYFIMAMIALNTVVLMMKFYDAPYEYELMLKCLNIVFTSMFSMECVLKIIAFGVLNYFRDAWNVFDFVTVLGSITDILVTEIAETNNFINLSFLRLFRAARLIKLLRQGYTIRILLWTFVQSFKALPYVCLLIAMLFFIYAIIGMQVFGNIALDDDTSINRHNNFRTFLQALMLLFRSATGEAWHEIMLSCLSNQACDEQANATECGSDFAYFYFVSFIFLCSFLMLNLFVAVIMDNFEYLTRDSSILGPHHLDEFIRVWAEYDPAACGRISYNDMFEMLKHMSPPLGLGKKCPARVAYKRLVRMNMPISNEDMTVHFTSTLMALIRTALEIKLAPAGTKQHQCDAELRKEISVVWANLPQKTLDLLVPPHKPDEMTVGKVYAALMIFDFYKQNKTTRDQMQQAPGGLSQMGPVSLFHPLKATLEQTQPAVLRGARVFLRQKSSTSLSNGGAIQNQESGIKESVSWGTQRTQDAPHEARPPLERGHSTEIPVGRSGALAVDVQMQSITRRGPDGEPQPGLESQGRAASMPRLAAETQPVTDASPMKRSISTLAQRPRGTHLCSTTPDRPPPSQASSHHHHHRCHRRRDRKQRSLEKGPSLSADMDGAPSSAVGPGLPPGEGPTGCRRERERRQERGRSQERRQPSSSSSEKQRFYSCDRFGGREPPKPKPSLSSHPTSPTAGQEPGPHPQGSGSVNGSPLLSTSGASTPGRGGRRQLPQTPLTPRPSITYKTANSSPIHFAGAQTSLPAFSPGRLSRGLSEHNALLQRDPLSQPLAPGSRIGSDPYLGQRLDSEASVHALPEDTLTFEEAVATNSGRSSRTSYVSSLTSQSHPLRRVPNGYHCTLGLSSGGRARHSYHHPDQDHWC
T7 sequence (Q02410 whole entry): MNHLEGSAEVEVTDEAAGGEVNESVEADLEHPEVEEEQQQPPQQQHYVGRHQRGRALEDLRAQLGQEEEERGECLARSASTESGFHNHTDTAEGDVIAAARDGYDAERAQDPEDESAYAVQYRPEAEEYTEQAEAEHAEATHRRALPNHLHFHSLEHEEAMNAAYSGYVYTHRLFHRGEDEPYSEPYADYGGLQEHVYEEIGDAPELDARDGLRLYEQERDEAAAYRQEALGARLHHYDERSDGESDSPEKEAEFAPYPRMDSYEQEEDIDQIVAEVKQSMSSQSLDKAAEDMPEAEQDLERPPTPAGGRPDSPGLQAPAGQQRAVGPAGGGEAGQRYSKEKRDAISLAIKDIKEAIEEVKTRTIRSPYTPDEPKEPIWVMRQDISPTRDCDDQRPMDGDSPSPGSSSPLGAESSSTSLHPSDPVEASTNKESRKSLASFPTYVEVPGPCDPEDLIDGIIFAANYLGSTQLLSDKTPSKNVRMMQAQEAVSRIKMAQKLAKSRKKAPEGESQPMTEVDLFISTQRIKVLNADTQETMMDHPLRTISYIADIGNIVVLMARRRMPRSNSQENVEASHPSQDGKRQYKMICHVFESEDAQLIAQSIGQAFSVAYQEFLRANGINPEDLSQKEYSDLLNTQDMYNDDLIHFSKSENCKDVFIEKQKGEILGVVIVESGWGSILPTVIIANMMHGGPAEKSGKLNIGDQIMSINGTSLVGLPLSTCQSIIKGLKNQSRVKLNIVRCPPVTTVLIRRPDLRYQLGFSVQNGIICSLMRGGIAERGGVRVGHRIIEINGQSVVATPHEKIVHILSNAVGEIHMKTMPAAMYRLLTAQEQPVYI
T4 sequence (Q9UBE0 whole entry): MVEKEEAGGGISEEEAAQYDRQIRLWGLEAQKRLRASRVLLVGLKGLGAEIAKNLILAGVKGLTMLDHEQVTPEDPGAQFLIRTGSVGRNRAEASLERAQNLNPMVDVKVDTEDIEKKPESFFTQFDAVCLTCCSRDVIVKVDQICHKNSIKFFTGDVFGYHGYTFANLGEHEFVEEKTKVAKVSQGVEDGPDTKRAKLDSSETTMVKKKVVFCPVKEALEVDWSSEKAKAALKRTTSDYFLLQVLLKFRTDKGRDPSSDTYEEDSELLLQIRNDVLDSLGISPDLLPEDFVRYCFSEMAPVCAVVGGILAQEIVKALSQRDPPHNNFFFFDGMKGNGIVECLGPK
T4 sequence (Q9UBT2 whole entry): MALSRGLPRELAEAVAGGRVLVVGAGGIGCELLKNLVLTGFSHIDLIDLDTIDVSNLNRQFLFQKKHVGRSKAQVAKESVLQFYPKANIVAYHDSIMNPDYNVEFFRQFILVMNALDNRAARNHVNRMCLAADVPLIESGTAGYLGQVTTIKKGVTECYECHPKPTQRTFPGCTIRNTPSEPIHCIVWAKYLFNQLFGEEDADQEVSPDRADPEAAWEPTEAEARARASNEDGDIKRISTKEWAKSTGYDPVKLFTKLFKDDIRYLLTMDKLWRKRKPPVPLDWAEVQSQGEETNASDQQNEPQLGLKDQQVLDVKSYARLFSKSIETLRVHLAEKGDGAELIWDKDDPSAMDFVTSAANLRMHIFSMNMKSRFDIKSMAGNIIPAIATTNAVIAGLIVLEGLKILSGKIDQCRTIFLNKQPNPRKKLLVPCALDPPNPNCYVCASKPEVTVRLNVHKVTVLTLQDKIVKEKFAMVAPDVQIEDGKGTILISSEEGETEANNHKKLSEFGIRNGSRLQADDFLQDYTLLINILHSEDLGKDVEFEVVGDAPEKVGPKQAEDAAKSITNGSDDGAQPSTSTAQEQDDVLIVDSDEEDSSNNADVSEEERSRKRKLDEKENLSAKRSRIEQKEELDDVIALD

As to `COc1cccc(-n2sc3ccccc3c2=O)c1`, the results for the IC50 in [1], in assay [2] and in assay [3] were 4.19 µM (active), 14.3 µM (active) and 2.52 µM (active), respectively.
Turning to `CC(NCCC(c1ccccc1)c1ccccc1)c1ccccc1` (stereo not drawn) [FENDILINE HYDROCHLORIDE], the IC50 (in general, the midpoint of a concentration-inhibition curve) in assay [4] is 3.1 µM (active).
As to `CCN(CCNC(=O)c1ccc(CNS(=O)(=O)c2ccc(C)cc2)cc1)Cc1ccccc1`, the IC50 was 2.93 µM (active) in assay [5], 10.3 µM (inactive) in assay [6], > 32 µM (inactive) in assay [7] and 5.57 µM (active) in assay [8].
On to `O=C(Nc1nnc(C2CC2)s1)c1cc([N+](=O)[O-])ccc1N1CCCCC1`, for which the IC50 in [9] and in assay [10] was > 66.6 µM (inactive) each time.
Turning to `COc1cccc(/C=N\NC(=O)C2=NNC(=O)C2C)c1O` (stereo not drawn), the EC50 (commonly the concentration giving half of the maximal effect) in assay [11] is > 160 µM (inconclusive); in assay [12], > 100 µM (inactive); in [14], 6.53 µM (active); in [15] it was 9.07 µM (active); in assay [17] it was > 38 µM (not active); in [18], 8.88 µM (active). Besides, the IC50 was 18.3 µM (active) in assay [13] and 5.18 µM (active) in assay [16].
For the molecule `CN(Cc1ccccc1)C(=O)C1CCCN(Cc2cccc(Cl)c2)C1` (stereo not drawn), the EC50 was 0.231 µM (active) in assay [19] and > 195 µM (not active) in [20]. Moreover, the AC50 (usually the concentration giving half of the maximal activity seen) in assay [21] is 0.57 µM (active); in assay [22], 70.3 µM (active).
For the molecule `O=C(NCCCO)Nc1ccc2nc(-c3ccco3)c(-c3ccco3)nc2c1`, the IC50 in assay [23] is 0.507 µM (active); in assay [24], 20 µM (active); in assay [25], 9.25 µM (active); in [26], 841 nM (active) and 537 nM (active); in [27] it was > 100 µM (active).
As for `CCOc1ccc(-n2c(SCC(=O)O)nc3sc4c(c3c2=O)CCCC4)cc1`, the EC50 in assay [28] was 5.96 µM (active).
